Laboratory results published in the supplement of paper PMC10307832.

Key:
Assay in all cases: relative viability (nuclei count vs DMSO), 5 days (fraction); higher = more cells survive
Cediranib + Palbociclib = compound: COc1cc2c(Oc3ccc4[nH]c(C)cc4c3F)ncnc2cc1OCCCN1CCCC1 [Cediranib] + CC(=O)c1c(C)c2cnc(Nc3ccc(N4CCNCC4)cn3)nc2n(C2CCCC2)c1=O [Palbociclib] (partner 0.5 µM)
Outline: (§1)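 Relative viability is defined as nuclei in treated wells over nuclei in vehicle wells. Duplicate plates were run and medians reported. Lung cancer cell lines in 1536-well plates were dosed by pin tool one day after seeding, with one drug or with a fixed anchor-drug dose plus five library-drug doses (not always all listed) in √10 steps, and nuclei were counted after 5 days.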

Cediranib + Decitabine = compound: COc1cc2c(Oc3ccc4[nH]c(C)cc4c3F)ncnc2cc1OCCCN1CCCC1 [Cediranib] + Nc1ncn([C@H]2C[C@H](O)[C@@H](CO)O2)c(=O)n1 [Decitabine] (partner 2 µM)
Outline: as §1

Halofuginone + Olaparib = compound: O=C(C[C@H]1NCCC[C@@H]1O)Cn1cnc2cc(Br)c(Cl)cc2c1=O (racemic) [Halofuginone] + O=C(c1cc(Cc2n[nH]c(=O)c3ccccc23)ccc1F)N1CCN(C(=O)C2CC2)CC1 [Olaparib] (partner 8 µM)
Outline: as §1

[1] = compound: O=C(C[C@H]1NCCC[C@@H]1O)Cn1cnc2cc(Br)c(Cl)cc2c1=O (racemic) [Halofuginone] + N=C(N)NC(=N)NCCc1ccccc1 [Phenformin] (partner 250 µM)
Outline: as §1

Cell Line | relative viability (Cediranib + Palbociclib; first compound 0.04 µM) | relative viability (Cediranib + Palbociclib; first compound 0.4 µM) | relative viability (Cediranib + Palbociclib; first compound 1.265 µM) | relative viability (Cediranib + Palbociclib; first compound 4 µM) | relative viability (Cediranib + Decitabine; first compound 0.04 µM) | relative viability (Cediranib + Decitabine; first compound 0.1265 µM) | relative viability (Cediranib + Decitabine; first compound 0.4 µM) | relative viability (Cediranib + Decitabine; first compound 1.265 µM) | relative viability (Cediranib + Decitabine; first compound 4 µM) | relative viability (Halofuginone + Olaparib; first compound 0.001 µM) | relative viability (Halofuginone + Olaparib; first compound 0.003162 µM) | relative viability (Halofuginone + Olaparib; first compound 0.01 µM) | relative viability (Halofuginone + Olaparib; first compound 0.03162 µM) | relative viability (Halofuginone + Olaparib; first compound 0.1 µM) | relative viability ([1]; first compound 0.001 µM) | relative viability ([1]; first compound 0.003162 µM) | relative viability ([1]; first compound 0.01 µM) | relative viability ([1]; first compound 0.03162 µM) | relative viability ([1]; first compound 0.1 µM) | relative viability (Cediranib + Palbociclib; first compound 0.1265 µM)
HCC-78 | 0.55 | 0.507 | 0.53 | 0.592 | 0.74 | 0.64 | 0.747 | 0.605 | 0.771 | 1.01 | 0.74 | 0.849 | 0.858 | 0.532 | 0.7 | 0.667 | 0.697 | 0.739 | 0.623 | 
HCC-366 | 0.451 | 0.366 | 0.411 | 0.262 | 0.379 | 0.318 | 0.305 | 0.364 | 0.338 | 0.337 | 0.319 | 0.351 | 0.328 | 0.0775 | 0.723 | 0.633 | 0.646 | 0.581 | 0.458 | 0.404
HCC-827 | 0.559 | 0.433 | 0.629 | 0.424 | 0.314 | 0.23 | 0.358 | 0.297 | 0.311 | 0.673 | 0.588 | 0.667 | 0.631 | 0.599 | 0.407 | 0.426 | 0.373 | 0.434 | 0.38 | 0.54
HOP-62 | 0.482 | 0.409 | 0.426 | 0.486 | 0.255 | 0.246 | 0.215 | 0.207 | 0.203 | 0.493 | 0.473 | 0.415 | 0.296 | 0.129 | 0.663 | 0.707 | 0.676 | 0.634 | 0.603 | 0.517
IA-LM |  |  |  |  |  |  |  |  |  | 0.848 | 0.913 | 0.768 | 0.656 | 0.305 |  |  |  |  |  | 
LC-2-ad | 0.527 | 0.456 | 0.494 | 0.399 | 0.803 | 0.779 | 0.784 | 0.744 | 0.822 | 0.675 | 0.697 | 0.692 | 0.678 | 0.669 | 0.694 | 0.581 | 0.536 | 0.677 | 0.466 | 0.55
LCLC-97TM1 | 0.277 | 0.194 | 0.211 | 0.277 | 0.234 |  | 0.223 | 0.196 | 0.248 | 0.445 | 0.314 | 0.392 | 0.387 | 0.233 | 0.4 | 0.408 | 0.351 | 0.417 | 0.332 | 
LCLC-103H | 0.494 | 0.511 | 0.469 | 0.521 | 0.789 | 0.815 | 0.781 | 0.731 | 0.761 | 0.794 | 0.779 | 0.778 | 0.747 | 0.737 | 0.35 | 0.341 | 0.323 | 0.326 | 0.309 | 0.47
LK-2 | 0.998 | 0.687 | 0.764 | 0.724 | 0.287 | 0.231 | 0.396 | 0.269 | 0.273 | 0.806 | 0.623 | 0.673 | 0.833 | 0.607 | 0.627 | 0.598 | 0.404 | 0.372 | 0.221 | 0.693
LOU-NH91 | 0.55 | 0.51 | 0.513 | 0.533 | 0.787 | 0.831 | 0.81 | 0.792 | 0.8 | 0.958 | 0.93 | 0.853 | 0.925 | 0.81 | 0.75 | 0.686 | 0.65 | 0.786 | 0.628 | 0.561
LU99A | 0.422 | 0.361 | 0.408 | 0.518 | 0.936 |  | 0.844 | 0.863 | 0.936 | 0.268 | 0.257 | 0.25 | 0.248 | 0.286 | 0.945 | 1.08 | 0.841 | 0.764 | 0.735 | 
LXF-289 | 0.617 | 0.569 | 0.566 | 0.609 | 0.397 |  | 0.371 | 0.385 | 0.411 | 1.02 | 1.03 | 1.06 | 1.07 | 0.815 | 0.533 | 0.519 | 0.498 | 0.508 | 0.507 | 
NCI-H23 | 0.585 | 0.547 | 0.429 | 0.56 | 0.327 | 0.355 | 0.31 | 0.312 | 0.339 | 0.409 | 0.291 | 0.326 | 0.271 | 0.223 | 0.774 | 0.762 | 0.757 | 0.806 | 0.669 | 0.601
NCI-H322M | 0.46 | 0.464 | 0.492 | 0.524 | 0.606 | 0.837 | 0.715 | 0.688 | 0.654 | 0.821 | 0.535 | 0.781 | 0.624 | 0.5 | 0.783 | 0.728 | 0.721 | 0.566 | 0.478 | 0.589
NCI-H596 |  |  |  |  | 1.04 | 1.1 | 0.978 | 0.918 | 1.18 | 0.756 | 0.737 | 0.655 | 0.752 | 0.549 | 0.732 | 0.84 | 0.742 | 0.938 | 0.569 | 
NCI-H1299 |  |  |  |  |  |  |  |  |  | 1 | 1.05 | 0.929 | 0.851 | 0.418 |  |  |  |  |  | 
NCI-H1563 |  |  |  |  |  |  |  |  |  |  |  |  |  |  | 0.659 | 0.638 | 0.615 | 0.602 | 0.549 | 
NCI-H1623 |  |  |  |  |  |  |  |  |  |  |  |  |  |  | 0.624 | 0.548 | 0.59 | 0.576 | 0.432 | 
NCI-H1648 | 0.28 | 0.287 | 0.307 | 0.633 | 0.44 | 0.501 | 0.448 | 0.48 | 0.481 | 1.25 | 1.15 | 1.21 | 0.979 | 0.936 |  |  |  |  |  | 0.242
NCI-H1703 |  |  |  |  |  |  |  |  |  | 0.495 | 0.483 | 0.482 | 0.289 | 0.2 |  |  |  |  |  | 
NCI-H2228 | 0.648 | 0.752 | 0.615 | 0.787 |  |  |  |  |  | 0.669 | 0.627 | 0.461 | 0.184 | 0.124 | 0.32 | 0.332 | 0.307 | 0.338 | 0.172 | 1.02
